# According to patent US20050054006A1, “Combinatorial fluorescent library based on the styryl scaffold” (New York University, priority 2003, published 2005):
# Legend:
# [1] = Spectrophotometric properties of the free styryl dyes; assay type: physicochemical
# Description: (§1) With these compounds(FIG. 2), we observed the fluorescence intensity change upon addition of DNA. […] With a series of concentrations of dsDNA (double stranded DNA) added to compound 1, a linear increase in the fluorescence intensities was observed (FIG. 3). At the highest concentration of DNA tested (50 μg/mL), the increase in fluorescence emission reached up to 13.3 times higher than that of the free compound (FIG. 4). A blue shift of 17 nm in the emission wavelength upon DNA addition was observed, without a significant excitation wavelength shift. The structure of compound 1 includes a 2,4,5-trimethoxy group from the benzaldehyde moiety and a unique adamantyl pyridinium functionality.
# [2] = system: UACC-62 human melanoma cells; assay: Organelle localization in live cells by fluorescence microscopy; conditions: compounds 1, 2, 3 at the same concentration, live UACC-62 cells
# [3] = system: dsDNA (double stranded DNA); assay: Fluorescence change of the dye upon addition of DNA (fluorometric titration); assay type: binding
# Description: as §1
# Different trimethoxy isomers, 2 (3,4,5-trimethoxy) and 3 (2,3,4-trimethoxy) were synthesized to compare the positional effects of the methoxy groups in compound 1 (FIG. 2). While the responses of compound 2 and 3 to DNA treatment were simliar to that of compound 1, the fluorescence emission increase was much smaller in compound 2 (4.3 fold) and compound 3 (1.5 fold).
smiles,measurement,setting,value
COc1cc(OC)c(OC)cc1C=Cc1cc[n+](C23CC4CC(CC(C4)C2)C3)cc1.[Br-] [Compound 1],emission wavelength,[1],583 nm
same,excitation wavelength,[1],413 nm
same,λem free (nm),[1]; free dye,583 nm
same,λmax (nm),[1]; free dye,413 nm
same,linear fluorescence response range,"[1]; in PBS, without self-quenching or wavelength shifts",0.05 to 100 µM
same,φF free,"[1]; quantum yield, free dye",0.00024
same,nuclear localization / staining in live cells,[2],more selective staining of the nucleus of live cells
same,blue shift in the emission wavelength upon DNA addition,[3],17 nm
same,fluorescence intensity change upon addition of DNA,[3],strong fluorescence increase
same,increase in fluorescence emission versus free compound,"[3]; highest DNA concentration tested, 50 μg/mL",13.3 times
same,φF DNA,"[3]; quantum yield, with DNA",0.0032
same,φF DNA/φF free,[3]; ratio of quantum yields with DNA and free,13.3
same,λem DNA (nm),[3]; with DNA,566 nm
